# According to article PMC9942557, “Bolaamphiphile Analogues of 12-bis-THA Cl2 Are Potent Antimicrobial Therapeutics with Distinct Mechanisms of Action against Bacterial, Mycobacterial, and Fungal Pathogens” (mSphere, 2022):
# How the values were obtained:
# P. aeruginosa NCTC 13437 = experiment: Checkerboard synergy assay; format: cell-based, Pseudomonas aeruginosa
# C. auris temp probe = experiment: Broth microdilution MIC; format: cell-based, Candida auris; conditions: C. auris temp probe
# [1] = test system: VR Enterococcus faecium NCTC 12204; experiment: Broth microdilution MIC; format: cell-based; conditions: VR Enterococcus faecium NCTC 12204
# [2] = test system: Prevotella bivia NCTC 11156; experiment: Anaerobic broth microdilution MIC (BHI, 5% horse serum); format: cell-based
# [3] = test system: Pseudomonas aeruginosa PAO1; experiment: Broth microdilution MIC; format: cell-based
# [4] = test system: Escherichia coli NCTC 12923; experiment: Broth microdilution MIC; format: cell-based
# G. vaginalis KC1 = experiment: Anaerobic broth microdilution MIC (BHI, 5% horse serum); format: cell-based, Gardnerella vaginalis
# [5] = test system: EMR Staphylococcus aureus 15 NCTC 13616; experiment: Broth microdilution MIC; format: cell-based; conditions: EMR Staphylococcus aureus 15 NCTC 13616
# [6] = test system: Ac. pleuropneumoniae 2356; experiment: Checkerboard synergy assay (BHI, 5% FBS, 0.01% NAD); format: cell-based, Actinobacillus pleuropneumoniae
# [7] = test system: Ac. pleuropneumoniae 2331; experiment: as above; format: cell-based, Actinobacillus pleuropneumoniae
# C. glabrata 8018 = experiment: Broth microdilution MIC; format: cell-based; conditions: C. glabrata 8018
# EMRSA-15 = format: in vivo, Galleria mellonella
# G. vaginalis KC3 = experiment: Anaerobic broth microdilution MIC (BHI, 5% horse serum); format: cell-based, Gardnerella vaginalis
# C. parapsilosis = experiment: Broth microdilution MIC; format: cell-based
# G. vaginalis NCTC 10287 = experiment: Anaerobic broth microdilution MIC (BHI, 5% horse serum); format: cell-based, Gardnerella vaginalis
# A. baumannii ATCC 17978 = experiment: G. mellonella burn wound infection model; format: in vivo, Galleria mellonella; conditions: alone; for larvae rescued: 96 h
# Excerpt: In addition to the intrahemocoelic infection/therapy models described above, a recently described G. mellonella burn wound model was adopted ([37]). The burn was created using the flat head of a nail, which was heated in a blue Bunsen burner flame until red hot, cooled for 15 s, and superficially applied for 2 s to generate a 2-mm^2 burn. Larvae were then infected with a single colony of A. baumannii ATCC 17978 applied directly to the burn site, or sterile phosphate-buffered saline was applied as a control. Treatment was applied topically 1 h after infection in a volume of 5 μL. Survival was monitored over 96 h.
# [8] = test system: EMR Staphylococcus aureus 16 NCTC 13277; experiment: Broth microdilution MIC; format: cell-based; conditions: EMR Staphylococcus aureus 16 NCTC 13277
# [9] = test system: Ac. pleuropneumoniae Shope; experiment: Checkerboard synergy assay (BHI, 5% FBS, 0.01% NAD); format: cell-based, Actinobacillus pleuropneumoniae
# C. albicans 3179 = experiment: Broth microdilution MIC; format: cell-based, Candida albicans; conditions: C. albicans 3179
# G. vaginalis KC2 = experiment: Anaerobic broth microdilution MIC (BHI, 5% horse serum); format: cell-based, Gardnerella vaginalis
# [10] = test system: VR Enterococcus faecalis NCTC 12201; experiment: Broth microdilution MIC; format: cell-based; conditions: VR Enterococcus faecalis NCTC 12201
# P. aeruginosa RP73 = experiment: Checkerboard synergy assay; format: cell-based, Pseudomonas aeruginosa
# [11] = test system: Ac. pleuropneumoniae 3370; experiment: Checkerboard synergy assay (BHI, 5% FBS, 0.01% NAD); format: cell-based, Actinobacillus pleuropneumoniae
# HEK293 = experiment: In vitro toxicity for cell line; format: cell-based, human; conditions: HEK293; average ± standard error from 3 independent repeats
# Excerpt: (§1) TABLE 2 Toxicity of bolaamphiphiles for two cell lines^a | column: Toxicity (EC50 [μg/ml]) of: / 12-bis-THA Cl2; Toxicity (EC50 [μg/ml]) of: / Dequalinium; Toxicity (EC50 [μg/ml]) of: / Quino-bola; Toxicity (EC50 [μg/ml]) of: / Penta-bola; Toxicity (EC50 [μg/ml]) of: / Hepta-bola; Toxicity (EC50 [μg/ml]) of: / Octa-bola; Toxicity (EC50 [μg/ml]) of: / Octa-C10; Toxicity (EC50 [μg/ml]) of: / Octa-C8; Toxicity (EC50 [μg/ml]) of: / Octa-C6
# HeLa = experiment: In vitro toxicity for cell line; format: cell-based, human; conditions: average ± standard error from 3 independent repeats
# Excerpt: as §1
# C. tropicalis 8760 = experiment: Broth microdilution MIC; format: cell-based; conditions: C. tropicalis 8760
# Klebsiella pneumoniae M6 = experiment: Broth microdilution MIC; format: cell-based
# [12] = test system: Acinetobacter baumannii AYE; experiment: Broth microdilution MIC; format: cell-based; conditions: Acinetobacter baumannii AYE
# [13] = test system: Klebsiella pneumoniae NCTC 13368; experiment: Broth microdilution MIC; format: cell-based
# C. krusei 3876 = experiment: Broth microdilution MIC; format: cell-based
# C. parapsilosis 3209 = experiment: Broth microdilution MIC; format: cell-based
# P. aeruginosa PAO1 = experiment: Checkerboard synergy assay; format: cell-based, Pseudomonas aeruginosa
# [14] = test system: Acinetobacter baumannii ATCC 17978; experiment: Broth microdilution MIC; format: cell-based
# C. albicans 3281 = experiment: Broth microdilution MIC; format: cell-based, Candida albicans; conditions: C. albicans 3281
# [15] = test system: Pseudomonas aeruginosa NCTC 13437; experiment: Broth microdilution MIC; format: cell-based
# [16] = test system: VS Enterococcus faecalis NCTC 775; experiment: Broth microdilution MIC; format: cell-based
smiles,measurement,setting,value
Nc1c2c([n+](CCCCCCCCCC[n+]3c4c(c(N)c5ccccc53)CCCCCC4)c3ccccc13)CCCCCC2 [Octa-C10],MIC alone Bolalipid,P. aeruginosa NCTC 13437,32 µg/mL
same,MIC,C. auris temp probe,4 µg/mL
same,MIC,[1],0.25 µg/mL
same,MIC,[2],0.125 µg/mL
same,MIC,[3],>32 µg/mL
same,MIC,[4],2 µg/mL
same,MIC,G. vaginalis KC1,0.5 to 1 µg/mL
same,MIC,[5],0.25 µg/mL
same,MIC alone Bolalipid,[6]; Octa-C10/enrofloxacin,4 to 8 µg/mL
same,MIC alone Bolalipid,[6]; Octa-C10/streptomycin,4 to 8 µg/mL
same,MIC alone Bolalipid,[7]; Octa-C10/enrofloxacin,4 to 8 µg/mL
same,MIC alone Bolalipid,[7]; Octa-C10/streptomycin,4 to 8 µg/mL
same,MIC,C. glabrata 8018,0.5 µg/mL
same,protection,EMRSA-15; in vivo,none of them providing significant protection
same,infected larvae rescued,"EMRSA-15; lowest dose, 0.1 mg/kg",approximately a third
same,MIC,G. vaginalis KC3,0.5 µg/mL
same,MIC,C. parapsilosis,4 µg/mL
same,MIC,G. vaginalis NCTC 10287,0.5 to 1 µg/mL
same,larvae rescued,A. baumannii ATCC 17978; 5 mg/kg topical,48%
same,larvae rescued,A. baumannii ATCC 17978; 10 mg/kg topical,60%
same,protection,A. baumannii ATCC 17978; lower doses (2.5 and 1.25 mg/kg),ineffective
same,MIC,[8],0.25 µg/mL
same,MIC alone Bolalipid,[9]; Octa-C10/enrofloxacin,1 µg/mL
same,MIC alone Bolalipid,[9]; Octa-C10/streptomycin,1 µg/mL
same,MIC,C. albicans 3179,0.5 µg/mL
same,MIC,G. vaginalis KC2,2 µg/mL
same,MIC,[10],1 µg/mL
same,MIC alone Bolalipid,P. aeruginosa RP73,8 µg/mL
same,MIC alone Bolalipid,[11]; Octa-C10/enrofloxacin,4 to 8 µg/mL
same,MIC alone Bolalipid,[11]; Octa-C10/streptomycin,4 to 8 µg/mL
same,Toxicity (EC50),HEK293,7.0 ± 0.5 µg/mL
same,Toxicity (EC50),HeLa,10.7 ± 0.3 µg/mL
same,MIC,C. tropicalis 8760,0.25 µg/mL
same,MIC,Klebsiella pneumoniae M6,16 µg/mL
same,MIC,[12],16 µg/mL
same,MIC,[13],32 µg/mL
same,MIC,C. krusei 3876,2 µg/mL
same,MIC,C. parapsilosis 3209,2 µg/mL
same,MIC alone Bolalipid,P. aeruginosa PAO1,64 µg/mL
same,MIC,[14],8 µg/mL
same,MIC,C. albicans 3281,1 µg/mL
same,MIC,[15],>32 µg/mL
same,MIC,[16],2 µg/mL
